The values that follow come from ChEMBL document CHEMBL1201862, “PubChem BioAssay data set” (2004).

Among the test systems are KM12; HCT-15; HL-60; HCC 2998; K562; U-251; OVCAR-3; UACC-62; SK-MEL-5; M14; SNB-19; A549; MOLT-4; SK-MEL-28; OVCAR-8; HOP-92; LOX IMVI; NCI-H226; SNB-75.
Holding throughout (test): inhibition of tumour cell growth, NCI panel, 48 h

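Following 48 hours of exposure in 96-well plates, responses at five concentrations were used to interpolate endpoints linearly. GI50: concentration for 50% inhibition of growth.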 Activity calls are given as the source filed them. Cut-off read from the data, not from the text of the source: active = GI50 up to about 1.1 µM and inactive = higher. Where a SMILES comes first, the peptide text is derived from it.

In the case of `Cc1cc(Cl)ccc1NC(=O)C1C(=O)N(c2ccc(Cl)cc2C)C(=O)/C1=N\NC(N)=S` (stereo not given), the GI50 with KM12 is 32.9 µM (inactive); in the experiment on HCT-15, 17.1 µM; in the experiment with HL-60, 20.1 µM (inactive); in the experiment with HCC 2998 it was 20.8 µM (inactive); in the experiment with K562, 23.6 µM (inactive); in the experiment with U-251 it was 19.6 µM (inactive). Besides, the GI50 with OVCAR-3 was 32.8 µM (inactive); in the experiment on UACC-62 it was 31.6 µM (inactive); in the experiment on SK-MEL-5 it was 32.7 µM (inactive); in the experiment on M14, 28.2 µM (inactive); in the experiment with SNB-19 it was 37.3 µM (inactive); with A549 it was 35.4 µM (inactive). Also, the GI50 is 19.2 µM (inactive) with MOLT-4, > 10 µM (inactive) in the experiment on SK-MEL-28, 41.9 µM (inactive) in the experiment on OVCAR-8 and 23.7 µM (inactive) with HOP-92.

As to `O=C(O)C(CO)NC(=O)n1c2ccccc2c2ccccc21` (stereo not given), the GI50 in the experiment on KM12 is > 100 µM (inactive); in the experiment on HCT-15 it was over 100 µM; in the experiment with HL-60, > 100 µM (inactive); in the experiment with HCC 2998, > 100 µM (inactive); with K562, > 100 µM (inactive); with LOX IMVI, > 100 µM (inactive). Moreover, the GI50 in the experiment on OVCAR-3, in the experiment with UACC-62, in the experiment with SK-MEL-5, in the experiment on SNB-19, in the experiment on A549 and in the experiment with NCI-H226 was > 100 µM (inactive) each time. Further, the GI50 in the experiment with MOLT-4, with SK-MEL-28, in the experiment on OVCAR-8 and in the experiment on HOP-92 was > 100 µM (inactive) each time.

Turning to `Cn1cnc([N+](=O)[O-])c1Sc1nnc(C(F)(F)F)n1C`, the GI50 was > 100 µM (inactive) with KM12; 75.2 µM (inactive) in the experiment on HCC 2998; 23.4 µM (inactive) with K562; 15.3 µM (inactive) with LOX IMVI; 17.1 µM (inactive) in the experiment on U-251; 22 µM (inactive) in the experiment with OVCAR-3. In addition, the GI50 with UACC-62 is 18 µM (inactive); in the experiment on SK-MEL-5, 32.6 µM (inactive); with M14, 17.4 µM (inactive); in the experiment with SNB-19, > 100 µM (inactive); in the experiment on A549, > 100 µM (inactive); in the experiment on NCI-H226 it was 24.9 µM (inactive). Also, the GI50 was 84.1 µM (inactive) with SNB-75; 15.2 µM (inactive) in the experiment with MOLT-4; 18.7 µM (inactive) with SK-MEL-28; 24.9 µM (inactive) with OVCAR-8; 16 µM (inactive) in the experiment with HOP-92.

Turning to `CCCCCCCCCCCCCCCCOCC(CP(=O)([O-])OCC[n+]1ccccc1)OC` (stereo not given), the GI50 in the experiment with KM12 is 2.67 µM (inactive); in the experiment on HL-60 it was 1.76 µM (inactive); in the experiment on HCC 2998, 2.45 µM (inactive); in the experiment on K562, 17.1 µM (inactive); in the experiment with OVCAR-3, 12.6 µM (inactive); in the experiment on UACC-62, 11.3 µM (inactive). The GI50 in the experiment on SK-MEL-5 is 14.1 µM (inactive); in the experiment on M14 it was 5.6 µM (inactive); in the experiment with SNB-19, 10.1 µM (inactive); in the experiment with A549, 10.6 µM (inactive); with NCI-H226, 4.02 µM (inactive); with SNB-75, 8.45 µM (inactive). For the same compound, the GI50 with MOLT-4 is 4.65 µM (inactive); in the experiment with SK-MEL-28, 17 µM (inactive); with OVCAR-8, 14.7 µM (inactive); in the experiment on HOP-92, 2.28 µM (inactive).

Turning to `Cc1ccc(Cl)c2c(=O)cc(-c3ccccc3)[nH]c12`, the GI50 in the experiment on KM12 was 25.4 µM (inactive); in the experiment on HCT-15, 46.2 µM; in the experiment on HL-60, 48.5 µM (inactive); in the experiment on K562, 49.2 µM (inactive); in the experiment on LOX IMVI, 39.7 µM (inactive); in the experiment with U-251, 88.5 µM (inactive). In addition, the GI50 in the experiment on UACC-62 was 42.5 µM (inactive); in the experiment on SK-MEL-5 it was 37.8 µM (inactive); with M14 it was 43 µM (inactive); in the experiment with A549 it was 46.3 µM (inactive); in the experiment with NCI-H226 it was 48.3 µM (inactive); in the experiment with SNB-75, 28.8 µM (inactive). Further, the GI50 was 32.9 µM (inactive) in the experiment on MOLT-4, > 100 µM (inactive) in the experiment on SK-MEL-28, > 100 µM (inactive) with OVCAR-8 and 38.8 µM (inactive) in the experiment on HOP-92.

`O=C(c1cccs1)N(C(=S)N1CCN(c2ccccn2)CC1)c1ccccc1`: the GI50 was > 100 µM (inactive) in the experiment with KM12; 61 µM with HCT-15; > 100 µM (inactive) with HL-60; > 100 µM (inactive) in the experiment on K562; > 100 µM (inactive) with LOX IMVI; > 100 µM (inactive) with U-251. Further, the GI50 is > 100 µM (inactive) in the experiment on OVCAR-3; 46.5 µM (inactive) in the experiment with UACC-62; 41.6 µM (inactive) with SK-MEL-5; 76.7 µM (inactive) with M14; > 100 µM (inactive) in the experiment with SNB-19; > 100 µM (inactive) in the experiment with A549. For the same compound, the GI50 in the experiment on NCI-H226 is 29 µM (inactive); with SNB-75, > 100 µM (inactive); in the experiment with MOLT-4, 48.4 µM (inactive); with SK-MEL-28, > 100 µM (inactive); in the experiment on OVCAR-8 it was 81.7 µM (inactive); in the experiment with HOP-92, > 100 µM (inactive).

With `CCC(C)C1NC(=O)C2CCCN2C(=O)CNC(=O)C(C)NC(=O)C(Cc2ccccc2)NC(=O)C(C(C)C)NC1=O` (stereo not given) (cyclo(GPIVFA); configuration not given here), the GI50 is 61.2 µM (inactive) in the experiment with KM12; over 100 µM with HCT-15; > 100 µM (inactive) with HCC 2998; > 100 µM (inactive) in the experiment on LOX IMVI; > 100 µM (inactive) with U-251; > 100 µM (inactive) with OVCAR-3. In addition, the GI50 in the experiment with UACC-62, with SK-MEL-5, in the experiment with M14, in the experiment on SNB-19, in the experiment with A549 and in the experiment on NCI-H226 was > 100 µM (inactive) each time. Besides, the GI50 in the experiment on SNB-75, in the experiment on MOLT-4, in the experiment on SK-MEL-28, in the experiment on OVCAR-8 and with HOP-92 was > 100 µM (inactive) throughout.

`COc1cc(C=C2C(=O)OC(C)(C)OC2=O)cc(OC)c1OC`: the GI50 with KM12 was > 100 µM (inactive); in the experiment with HCT-15, over 100 µM; with HL-60, > 100 µM (inactive); in the experiment on HCC 2998, > 100 µM (inactive); in the experiment on K562, > 100 µM (inactive); with LOX IMVI it was > 100 µM (inactive). The GI50 with U-251, in the experiment on OVCAR-3, with UACC-62, in the experiment with SK-MEL-5, with M14 and in the experiment on SNB-19 was > 100 µM (inactive) in each case. The GI50 in the experiment with A549, in the experiment with NCI-H226, in the experiment with MOLT-4, with SK-MEL-28, in the experiment with OVCAR-8 and with HOP-92 was > 100 µM (inactive) each time.

On to `O=C1C(Cl)=C(NCCOCCO)C(=O)c2c(O)ccc(O)c21`, for which the GI50 was 3.32 µM (inactive) with KM12; 1.85 µM with HCT-15; 3.89 µM (inactive) with HL-60; 2.65 µM (inactive) with K562; 3.61 µM (inactive) with LOX IMVI; 17 µM (inactive) with U-251. Besides, the GI50 in the experiment with UACC-62 is 3.24 µM (inactive); in the experiment with SK-MEL-5 it was 1.96 µM (inactive); with M14 it was 11.2 µM (inactive); with A549 it was 5.75 µM (inactive); with NCI-H226, 18.3 µM (inactive); in the experiment with SNB-75, 17 µM (inactive). In addition, the GI50 with MOLT-4 was 5.19 µM (inactive); in the experiment with OVCAR-8, 7.36 µM (inactive); in the experiment with HOP-92, 24.3 µM (inactive).

`CCC(=O)CC(=O)CCC(=O)Nc1cc(C)ccc1C`: the GI50 with KM12 was > 100 µM (inactive); with HCT-15 it was over 100 µM; with HL-60 it was > 100 µM (inactive); in the experiment with K562 it was > 100 µM (inactive); with LOX IMVI, > 100 µM (inactive); with U-251 it was > 100 µM (inactive). In addition, the GI50 in the experiment on OVCAR-3, with UACC-62, in the experiment with SK-MEL-5, in the experiment with M14, in the experiment on SNB-19 and in the experiment with A549 was > 100 µM (inactive) throughout. The GI50 with SNB-75, in the experiment on MOLT-4, in the experiment with SK-MEL-28, in the experiment with OVCAR-8 and in the experiment on HOP-92 was > 100 µM (inactive) in each case.

As for `CC1=C(C(=O)Nc2ccccc2C)C(c2ccco2)C(C(=O)Nc2ccccc2C)=C(C)N1C`, the GI50 in the experiment with KM12 was > 100 µM (inactive); in the experiment on HL-60 it was > 100 µM (inactive); in the experiment with HCC 2998, > 100 µM (inactive); in the experiment with K562, 85.5 µM (inactive); with LOX IMVI, > 100 µM (inactive); with U-251, > 100 µM (inactive). In addition, the GI50 with OVCAR-3, in the experiment with UACC-62, with SK-MEL-5, in the experiment on M14, with SNB-19 and in the experiment on A549 was > 100 µM (inactive) in each case. Besides, the GI50 in the experiment on NCI-H226 is > 100 µM (inactive); with MOLT-4, 51.2 µM (inactive); in the experiment with SK-MEL-28, > 100 µM (inactive); with OVCAR-8 it was > 100 µM (inactive); in the experiment on HOP-92, > 100 µM (inactive).

Take `COC(=O)[C@@]12OC[C@]34C([C@@H](O)C1O)[C@@]1(C)CC(=O)C(OC(=O)CC(C)C(F)(F)F)=C(C)C1C[C@H]3OC(=O)[C@H](O)[C@H]42` (stereo not given in full): the GI50 was 11.2 µM (inactive) with KM12; over 62.5 µM in the experiment with HCT-15; 0.268 µM (active) in the experiment on HL-60; 2 µM (inactive) in the experiment with HCC 2998; 6.05 µM (inactive) in the experiment with K562; 4.79 µM (inactive) with U-251. Moreover, the GI50 was 1.12 µM (active) in the experiment with UACC-62; 1.63 µM (inactive) with SK-MEL-5; 1.99 µM (inactive) in the experiment on M14; 0.809 µM (active) in the experiment on SNB-19; 17.3 µM (inactive) in the experiment on A549; 2.06 µM (inactive) in the experiment on NCI-H226. Besides, the GI50 with SNB-75 was 2.11 µM (inactive); in the experiment with MOLT-4 it was 0.771 µM (active); with SK-MEL-28, 1.53 µM (inactive); with OVCAR-8, 4.71 µM (inactive); in the experiment on HOP-92, 0.887 µM (active).
